Literature values, collected in patent US8945526B2, “Amphiphilic substance, and drug delivery system and molecular imaging system using the same” (Shimadzu Corporation, priority 2006, dated 2015).

Conditions: ICG singly administered

removal from the body: removed from a body in one hour
SMILES: CC1(C)C(/C=C/C=C/C=C/C=C2\N(CCCCS(=O)(=O)O)c3ccc4ccccc4c3C2(C)C)=[N+](CCCCS(=O)(=O)[O-])c2ccc3ccccc3c21 [ICG, indocyanine green]
